The text below walks through data of article PMC8414802, “Hair Cell Generation in Cochlear Culture Models Mediated by Novel γ-Secretase Inhibitors” (Frontiers in Cell and Developmental Biology, 2021).

The assay has as its system hair cell genes (Atoh1, Pou4f3, Myo7a) and supporting cell gene (Hes5) in cochlear organoids. The experiment in a line: Cochlear organoids from Atoh1-nGFP mice, gene expression by RT-PCR. It is filed as cell-based. The conditions noted are these: mouse organoids, 5 μM, end of differentiation, vs untreated. On the procedure: On day 0, the cochlear sensory epithelium was dissected and the OC was separated from the modiolus and stria vascularis, as described above, from either Wistar rat pups (P2), Lgr5-GFP mice (P0–P2) or Atoh1-GFP mice (P0–P2). To separate the sensory epithelial layer from underlying mesenchyme and neurons, the OC was placed in a 100 μl drop of Matrisperse Cell Recovery Solution (Corning) for 1 h at RT, then delaminated with the aid of forceps. Gentle enzymatic dissociation of hair cells and supporting cells followed with 100 μl drop of TrypLE (Gibco), 20 min at 37°C, then mechanical trituration in DMEM/F12. The cell suspension was centrifuged for 5 min at 500 g at 4°C and resuspended in DMEM/F12 medium supplemented with B27 and N2 (Invitrogen), EGF (50 ng/ml), bFGF (50 ng/ml), IGF (25 ng/ml), CHIR99021 (GSK-3β inhibitor, 3 μM, Merck), valproic acid (HDAC inhibitor, 1 mM, Sigma), 2-phospho-L-ascorbic acid (280 μM, Stemcell Technologies) and 0.01% ampicillin (Sigma). Cells were plated at 2,000 cells per well on 96 wells plate (Corning Costar; ultra-low attachment, round-bottom) to allow aggregation at 37°C. On day 1, Matrigel (GF-depleted, Corning; 2% stock) was added to a final concentration of 0.18 mg/ml. On day 3, cells were transferred to 24 wells plate (ultra-low attachment; Corning Costar), pooling the organoid aggregates from 4 to 5 wells (96 well-plate) to one 24-well, culturing at 37°C and exchanging half medium and Matrigel every other day, On day 10, organoids were differentiated by replacing medium with DMEM/F12 supplemented with B27, N2, CHIR99021 (3 μM), and Notch inhibitors CPD3 (5 μM) or LY411575 (5 μM), and culture was continued as above for another 10 days.
Cells or tissue were lysed using RLT Lysis Buffer (Qiagen) and high purity RNA was prepared on the MagNA Pure instrument using MagNA Pure 96 Cellular RNA LV Kit (Roche). […] Normalized to Tbp, relative gene expression fold-change was quantified and compared between experimental and control conditions by ΔΔCt calculation. […]

The compound `COc1ccc2c(c1)N1CCC(C)(C)C1=CC(=O)[C@H]2NC(=O)[C@H](C)NC(=O)CCC(F)(F)F` [CPD3] displayed an Atoh1 expression of 8.07 ± 5.6 fold, a Myo7a expression of 9.9 ± 10.5 fold and a Pou4f3 expression of 12.65 ± 11.07 fold.
